Experimental data reported in patent US20260272879A1, “ANION-BINDING AROMATIC OLIGOAMIDE MACROCYCLES AND METHODS OF MAKING AND USING SAME” (The Research Foundation for The State University of New York, priority 2023, published 2026).

Experiments:
[1] = 1H NMR titration, binding of nitrate; conditions: n-Bu4N^+ salt, CD3CN/CDCl3 (1/9, v/v), room temperature
Excerpt: (§1) Anion binding with four amides, i.e., L1mer-L4mer, was studied in the mixed solvents of CD3CN/CDCl3 (1/9, v/v) by titrating an amide host with 0 to 5 equivalents of tetrabutylammonium (n-Bu4N^+) salt of the corresponding anion. The binding of chloride, bromide, iodide, and nitrate was examined with the four amides in CDCl3 containing 10% CD3CN. The titration data were collected by monitoring the changes in chemical shifts of the backbone amide protons and the inner aromatic protons with varying ratios of the anion guests. Job plots indicate that these linear oligoamides and their anion guests bind in a 1:1 stoichiometry.
(§2) The binding of anions by macrocycle 7c was examined in CH3CN/CHCl3 (6/4, v/v) and in DMSO by titrating with various equivalents of the salts of chloride, iodide. nitrate, and dihydrogen phosphate, with tetrabutylammonium (n-Bu4N^+) being the counterion ion. Following the changes in the chemical shifts of backbone amide protons and “inner” aromatic protons allowed the determination of binding constants.
^1H NMR titration methods. Titrations of c5a and c5b with anions as their tetra-n-butylammonium (TBA), tetra-ethylammonium (TEA) and tetra-methylammonium (TMA) salts were carried out by ^1H NMR (400 MHz) at 25° C. 0.4 mL of corresponding hosts solutions were prepared in the rubber-cap NMR tubes. Aliquots of concentrated guest solution containing hosts were added into the NMR tubes using 20 microliter pipette. An initial ^1H NMR spectrum was collected and additional spectra were obtained after each injection of guest solution. All titration ^1H NMR spectra were stacked together and the chemical shifts of the internal aromatic CH proton were then fitted to 1:1 binding model using BindFit v0.5 (http://app.supramolecular.org/bindfit/) to evaluate binding constants to anions.

[2] = 1H NMR titration, binding of chloride; conditions: n-Bu4N^+ salt, CD3CN/CDCl3 (1/9, v/v), room temperature
Procedure: ^1H NMR Titration methods. Titrations of 4c and 6c with anions as their tetra-n-butyl ammonium (TBA) salts were carried out by ^1H NMR (400 MHz on Bruker-400) at room temperature (298 K). 0.5 mL of receptor 4c (5.0 mM) or 6c (2.0 mM) were prepared in the rubber-cap NMR tubes. Aliquots of concentrated TBACl or TBAI solution (50 mM for the titration of 4c and 20 mM for the titration of 6c) containing the same amount of receptors were added into the receptor solution using 20 microliter pipette. An initial ^1H NMR spectrum was collected and additional spectra were obtained after each injection of TBACl or TBAI solution. All titration ^1H NMR spectra were stacked together and the chemical shifts of amide protons were then fitted to the proposed 1:1 binding model using BindFit v0.5 (http://app.supramolecular.org/bindfit/).
as §1, §2
^1H NMR titration methods. Titrations of c5a and c5b with anions as their tetra-n-butylammonium (TBA), tetra-ethylammonium (TEA) and tetra-methylammonium (TMA) salts were carried out by ^1H NMR (400 MHz) at 25° C. […]

[3] = pH 8.3, in water; cited from earlier work
[4] = Solubility; assay type: physicochemical

## CCCCCCCCCC(=O)Nc1ccc(NC(=O)C(C)(C)COCCCCCCCC)c(C(=O)Nc2ccc(NC(=O)C(C)(C)COCCCCCCCC)c(C(=O)Nc3ccc(NC(=O)C(C)(C)COCCCCCCCC)c(C(=O)Nc4ccc(NC(=O)C(C)(C)COCCCCCCCC)c(C(=O)NCCCCCC)c4)c3)c2)c1 [Compound L4mer]
[1]
  Ka of nitrate: ~10000 M⁻¹
[2]
  Ka of chloride: over 1,000 M^−1

## SBP: sulfate-binding protein (SBP) from the gram-negative bacterium S. typhimurium
[3]
  Ka for the sulfate ion: 8.3e+06 M⁻¹

## COCCOCCOCCOCC(C)(C)C(=O)Nc1ccc2cc1C(=O)Nc1ccc(NC(=O)C(C)(C)COCCOCCOCCOC)c(c1)C(=O)Nc1ccc(NC(=O)C(C)(C)COCCOCCOCCOC)c(c1)C(=O)Nc1ccc(NC(=O)C(C)(C)COCCOCCOCCOC)c(c1)C(=O)Nc1ccc(NC(=O)C(C)(C)COCCOCCOCCOC)c(c1)C(=O)N2 [c5b]
[4]; variety of / many organic solvents
  solubility in organic solvents: soluble
[4]; water
  solubility in water: ~ 1 mM

## CCCCCCCCCC(=O)Nc1ccc(NC(=O)C(C)(C)COCCCCCCCC)c(C(=O)NCCCCCC)c1 [Compound L1mer]
[2]
  Ka of chloride: 39 M⁻¹
